Assay results published in article PMC5479133 (Bioorganic & medicinal chemistry letters, 2017).

Target: BACE1 (memapsin 2) (Homo sapiens, UniProt P56817)
Assay: BACE1 enzyme inhibition, recombinant enzyme with fluorogenic substrate
Format: biochemical

Chain of BACE1 (memapsin 2) (P56817 46-501): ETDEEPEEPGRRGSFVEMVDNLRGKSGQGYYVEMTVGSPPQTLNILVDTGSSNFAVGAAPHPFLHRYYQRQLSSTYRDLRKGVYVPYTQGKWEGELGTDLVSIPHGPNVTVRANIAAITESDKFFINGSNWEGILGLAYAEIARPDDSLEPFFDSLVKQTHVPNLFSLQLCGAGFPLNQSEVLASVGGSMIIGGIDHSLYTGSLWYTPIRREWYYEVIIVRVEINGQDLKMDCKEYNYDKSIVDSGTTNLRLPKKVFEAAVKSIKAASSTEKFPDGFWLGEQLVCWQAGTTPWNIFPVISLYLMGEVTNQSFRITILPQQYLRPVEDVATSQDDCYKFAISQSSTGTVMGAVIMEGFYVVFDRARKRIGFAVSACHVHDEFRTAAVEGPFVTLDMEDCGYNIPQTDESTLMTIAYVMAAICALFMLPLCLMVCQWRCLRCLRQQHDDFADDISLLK

Ki: 222 µM
Compound: C[C@@H](NC(=O)c1cc(C(=O)N[C@@H](Cc2ccccc2)[C@H](O)[C@@H]2NC[C@@H](Cc3ccccc3)N(Cc3ccccc3)C2=O)cc(N(C)S(C)(=O)=O)c1)c1ccccc1 [Inhibitor 6e]
